Article PMC12446476 (Nature Communications, 2025)
Values after ≈ are worked out from the molar mass of the structure shown. Read-outs that look alike come from different tables or passages of the source.

System: N. gonorrhoeae
Experiment: MIC determination, agar dilution (CLSI)
Assay type: cell-based, Neisseria gonorrhoeae
Conditions: Neisseria gonorrhoeae
Outline: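 For N. gonorrhoeae, WHO 2024 reference strains served as quality control, only whole doubling-dilution MICs were reported, and isolates were classified by EUCAST v14.0 breakpoints or ECOFF. Time-kill assays followed CLSI in Columbia broth with 1% IsoVitaleX, and viable counts came from plating serial dilutions on GC agar with IsoVitaleX.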

Cc1c(CN(C)C(=O)/C=C/c2cnc3c(c2)N[C@H](C)[C@H](O)C(=O)N3)oc2ccccc12 [Debio 1453]
MIC (clinical N. gonorrhoeae isolate 61, Sweden 2023, read-out: Minimum inhibitory concentration): 0.064 µg/mL (≈ 0.152 µM) | MIC (clinical N. gonorrhoeae isolate 62, Sweden 2023, read-out: Minimum inhibitory concentration): 0.016 µg/mL (≈ 0.0381 µM) | MIC (clinical N. gonorrhoeae isolate 63, Sweden 2023, read-out: Minimum inhibitory concentration): 0.032 µg/mL (≈ 0.0761 µM) | MIC (clinical N. gonorrhoeae isolate 64, Sweden 2023, read-out: Minimum inhibitory concentration): 0.008 µg/mL (≈ 0.019 µM) | MIC (clinical N. gonorrhoeae isolate 65, Sweden 2023, read-out: Minimum inhibitory concentration): 0.064 µg/mL (≈ 0.152 µM) | MIC (clinical N. gonorrhoeae isolate 66, Sweden 2023, read-out: Minimum inhibitory concentration): 0.032 µg/mL (≈ 0.0761 µM) | MIC (clinical N. gonorrhoeae isolate 67, Sweden 2023, read-out: Minimum inhibitory concentration): 0.032 µg/mL (≈ 0.0761 µM) | MIC (clinical N. gonorrhoeae isolate 68, Sweden 2023, read-out: Minimum inhibitory concentration): 0.064 µg/mL (≈ 0.152 µM) | MIC (clinical N. gonorrhoeae isolate 69, Sweden 2023, read-out: Minimum inhibitory concentration): 0.064 µg/mL (≈ 0.152 µM) | MIC (clinical N. gonorrhoeae isolate 70, Sweden 2023, read-out: Minimum inhibitory concentration): 0.064 µg/mL (≈ 0.152 µM) | MIC (clinical N. gonorrhoeae isolate 71, Sweden 2023, read-out: Minimum inhibitory concentration): 0.064 µg/mL (≈ 0.152 µM) | MIC (clinical N. gonorrhoeae isolate 72, Sweden 2023, read-out: Minimum inhibitory concentration): 0.064 µg/mL (≈ 0.152 µM) | MIC (clinical N. gonorrhoeae isolate 73, Sweden 2023, read-out: Minimum inhibitory concentration): 0.032 µg/mL (≈ 0.0761 µM) | MIC (clinical N. gonorrhoeae isolate 74, Sweden 2023, read-out: Minimum inhibitory concentration): 0.064 µg/mL (≈ 0.152 µM) | MIC (clinical N. gonorrhoeae isolate 75, Sweden 2023, read-out: Minimum inhibitory concentration): 0.008 µg/mL (≈ 0.019 µM) | MIC (clinical N. gonorrhoeae isolate 76, Sweden 2023, read-out: Minimum inhibitory concentration): 0.064 µg/mL (≈ 0.152 µM) | MIC (clinical N. gonorrhoeae isolate 77, Sweden 2023, read-out: Minimum inhibitory concentration): 0.064 µg/mL (≈ 0.152 µM) | MIC (clinical N. gonorrhoeae isolate 78, Sweden 2023, read-out: Minimum inhibitory concentration): 0.032 µg/mL (≈ 0.0761 µM) | MIC (clinical N. gonorrhoeae isolate 79, Sweden 2023, read-out: Minimum inhibitory concentration): 0.032 µg/mL (≈ 0.0761 µM) | MIC (clinical N. gonorrhoeae isolate 80, Sweden 2023, read-out: Minimum inhibitory concentration): 0.032 µg/mL (≈ 0.0761 µM) | MIC (clinical N. gonorrhoeae isolate 81, Sweden 2023, read-out: Minimum inhibitory concentration): 0.064 µg/mL (≈ 0.152 µM) | MIC (clinical N. gonorrhoeae isolate 82, Sweden 2023, read-out: Minimum inhibitory concentration): 0.032 µg/mL (≈ 0.0761 µM) | MIC (clinical N. gonorrhoeae isolate 83, Sweden 2023, read-out: Minimum inhibitory concentration): 0.064 µg/mL (≈ 0.152 µM) | MIC (clinical N. gonorrhoeae isolate 84, Sweden 2023, read-out: Minimum inhibitory concentration): 0.064 µg/mL (≈ 0.152 µM) | MIC (clinical N. gonorrhoeae isolate 85, Sweden 2023, read-out: Minimum inhibitory concentration): 0.008 µg/mL (≈ 0.019 µM) | MIC (clinical N. gonorrhoeae isolate 86, Sweden 2023, read-out: Minimum inhibitory concentration): 0.032 µg/mL (≈ 0.0761 µM) | MIC (clinical N. gonorrhoeae isolate 87, Sweden 2023, read-out: Minimum inhibitory concentration): 0.016 µg/mL (≈ 0.0381 µM) | MIC (clinical N. gonorrhoeae isolate 88, Sweden 2023, read-out: Minimum inhibitory concentration): 0.064 µg/mL (≈ 0.152 µM) | MIC (clinical N. gonorrhoeae isolate 89, Sweden 2023, read-out: Minimum inhibitory concentration): 0.032 µg/mL (≈ 0.0761 µM) | MIC (clinical N. gonorrhoeae isolate 90, Sweden 2023, read-out: Minimum inhibitory concentration): 0.125 µg/mL (≈ 0.297 µM) | MIC (clinical N. gonorrhoeae isolate 91, Sweden 2023, read-out: Minimum inhibitory concentration): 0.032 µg/mL (≈ 0.0761 µM) | MIC (clinical N. gonorrhoeae isolate 92, Sweden 2023, read-out: Minimum inhibitory concentration): 0.016 µg/mL (≈ 0.0381 µM) | MIC (clinical N. gonorrhoeae isolate 93, Sweden 2023, read-out: Minimum inhibitory concentration): 0.125 µg/mL (≈ 0.297 µM) | MIC (clinical N. gonorrhoeae isolate 94, Sweden 2023, read-out: Minimum inhibitory concentration): 0.064 µg/mL (≈ 0.152 µM) | MIC (clinical N. gonorrhoeae isolate 95, Sweden 2023, read-out: Minimum inhibitory concentration): 0.064 µg/mL (≈ 0.152 µM) | MIC (clinical N. gonorrhoeae isolate 96, Sweden 2023, read-out: Minimum inhibitory concentration): 0.032 µg/mL (≈ 0.0761 µM) | MIC (clinical N. gonorrhoeae isolate 97, Sweden 2023, read-out: Minimum inhibitory concentration): 0.064 µg/mL (≈ 0.152 µM) | MIC (clinical N. gonorrhoeae isolate 98, Sweden 2023, read-out: Minimum inhibitory concentration): 0.064 µg/mL (≈ 0.152 µM) | MIC (clinical N. gonorrhoeae isolate 99, Sweden 2023, read-out: Minimum inhibitory concentration): 0.008 µg/mL (≈ 0.019 µM) | MIC (clinical N. gonorrhoeae isolate 100, Sweden 2023, read-out: Minimum inhibitory concentration): 0.008 µg/mL (≈ 0.019 µM) | MIC (read-out: MIC relevant for mutant selection assay, WHO Z): 0.125 µg/mL (≈ 0.297 µM)
